Measured values reported in patent publication US11214594B2, “Antimicrobial peptide having synergistic antibacterial effect with antibiotics on multidrug resistant bacteria, and use thereof” (priority 2016, dated 2022).
Converted amounts (≈) assume the structure as drawn. Like-named read-outs stand apart in the source and are kept apart here. Where a SMILES comes first, the peptide text is derived from it.

How the values were obtained:
MDRAB 12035 [1] = experiment: MIC of antibiotic during combined treatment with antimicrobial peptide; assay type: cell-based, Acinetobacter baumannii
Experimental: (§1) Specifically, the strains described in [Table 2] were prepared and diluted with an MH medium such that the number of bacteria was 2×10^6 colony-forming units (CFUs) per 1 ml, 100 μl of the diluted strains was each aliquoted into a 96-well microtiter plate, and then 50 μl of a peptide solution diluted with the MH medium from the MIC value (solution diluted stepwise at 2: 1) was added to each well. Thereafter, the MIC value of each mixed solution was determined by diluting the antibiotic solution with the MH medium, adding 50 μl of the diluted solution to each well, and performing an experiment even under a reversed condition.

MDRST 8009 = assay type: cell-based, Salmonella typhimurium; conditions: agent alone
Experimental: (§2) For the antibacterial activity, a minimal inhibitory concentration (MIC) of a peptide in which fungus bodies were not split in an MH medium with sufficient nutrients was measured.
(§3) Specifically, the strains described in the following [Table 2] were purchased and diluted with an MH medium such that the number of bacteria was 2×10^6 colony-forming units (CFUs), 100 μl of each of the diluted strains was aliquoted into a 96-well microtiter plate, and then 100 μl of a peptide solution diluted with the MH medium (solution diluted stepwise at 2: 1) was added to each well.

MDRAB 12036 = assay type: cell-based, Acinetobacter baumannii
Experimental: as §2, §3

MDRAB 12035 [2] = experiment: MIC of antimicrobial peptide during combined treatment with antibiotic; assay type: cell-based, Acinetobacter baumannii
Experimental: as §1

P. aeruginosa = experiment: microbe, parasite or virus in culture; assay type: cell-based, Pseudomonas aeruginosa
Experimental: as §2, §3

MDRPA 2003 = assay type: cell-based, Pseudomonas aeruginosa
Experimental: as §2, §3

E. coli = assay type: cell-based, Escherichia coli; conditions: E. coli
Experimental: as §1

MDREC 1229 [3] = assay type: cell-based, Escherichia coli
Experimental: as §1

MDREC 1238 = assay type: cell-based, Escherichia coli
Experimental: as §2, §3

A. baumannii = experiment: MIC of antibiotic during combined treatment with antimicrobial peptide; assay type: cell-based, Acinetobacter baumannii; conditions: for Antibiotic MIC, Erythromycin / Antibiotic MIC, Linezolid / Antibiotic MIC, Vancomycin: A. baumannii
Experimental: Thereafter, the MIC value of each mixed solution was determined by diluting the antibiotic solution with the MH medium, adding 50 μl of the diluted solution to each well, and performing an experiment even under a reversed condition.

MDREC 1229 [4] = experiment: as above; assay type: cell-based, Escherichia coli
Experimental: as §1

S. epidermidis = experiment: microbe, parasite or virus in culture; assay type: cell-based, Staphylococcus epidermidis
Experimental: as §2, §3

[5] = peptide treatment concentration 1 μg/ml
[6] = peptide treatment concentration 2 μg/ml
[7] = peptide treatment concentration 4 μg/ml
[8] = peptide treatment concentration 6 μg/ml
[9] = peptide treatment concentration 8 μg/ml
[10] = peptide treatment concentration 16 μg/ml
[11] = peptide treatment concentration 32 μg/ml
[12] = peptide treatment concentration 64 μg/ml
[13] = linezolid 64 μg/ml (Conc./MIC 1/8)
[14] = linezolid 512 μg/ml (Conc./MIC 1)
[15] = vancomycin 512 μg/ml (Conc./MIC 1/2)
[16] = vancomycin 1024 μg/ml (Conc./MIC 1)
[17] = combined with peptide at 1 μg/ml
[18] = combined with peptide at 2 μg/ml
[19] = combined with peptide at 4 μg/ml
[20] = combined with peptide at 6 μg/ml
[21] = combined with peptide at 8 μg/ml
[22] = combined with peptide at 16 μg/ml
[23] = combined with peptide at 32 μg/ml
[24] = combined with peptide at 64 μg/ml

CC[C@H](C)[C@H](NC(=O)[C@H](CCCCN)NC(=O)[C@H](Cc1c[nH]c2ccccc12)NC(=O)[C@@H](N)CCCNC(=N)N)C(=O)N[C@@H](Cc1ccccc1)C(=O)N[C@@H](CCCCN)C(=O)N[C@@H](CCCCN)C(=O)N[C@H](C(=O)N1CCC[C@H]1C(=O)N[C@@H](CCCCN)C(=O)N[C@@H](CC(C)C)C(=O)N[C@@H](CC(C)C)C(=O)N[C@@H](Cc1c[nH]cn1)C(=O)N[C@@H](CCC(=O)O)C(=O)N[C@@H](Cc1ccccc1)C(=O)N[C@@H](CCCCN)C(=O)N[C@@H](CCCCN)C(=O)N[C@@H](Cc1ccccc1)C(N)=O)[C@@H](C)CC [PapMA-12, RWK IFK KIP KLL HEF KKF-NH2] (H-RWKIFKKIPKLLHEFKKF-NH2; N-terminus assumed)
Erythromycin MIC during combined treatment with peptide (MDRAB 12035 [1]; [5]): 16 µg/mL
Linezolid MIC during combined treatment with peptide (MDRAB 12035 [1]; [5]): 128 µg/mL
Vancomycin MIC during combined treatment with peptide (MDRAB 12035 [1]; [5]): 128 µg/mL
Erythromycin MIC during combined treatment with peptide (MDRAB 12035 [1]; [6]): 8 µg/mL
Linezolid MIC during combined treatment with peptide (MDRAB 12035 [1]; [6]): 64 µg/mL
Vancomycin MIC during combined treatment with peptide (MDRAB 12035 [1]; [6]): 64 µg/mL
Erythromycin MIC during combined treatment with peptide (MDRAB 12035 [1]; [7]): 2 µg/mL
Linezolid MIC during combined treatment with peptide (MDRAB 12035 [1]; [7]): 16 µg/mL
Vancomycin MIC during combined treatment with peptide (MDRAB 12035 [1]; [7]): 16 µg/mL
Erythromycin MIC during combined treatment with peptide (MDRAB 12035 [1]; [8]): 1 µg/mL
Linezolid MIC during combined treatment with peptide (MDRAB 12035 [1]; [8]): 8 µg/mL
Vancomycin MIC during combined treatment with peptide (MDRAB 12035 [1]; [8]): 4 µg/mL
Erythromycin MIC during combined treatment with peptide (MDRAB 12035 [1]; [9]): 0 µg/mL
Linezolid MIC during combined treatment with peptide (MDRAB 12035 [1]; [9]): 0 µg/mL
Vancomycin MIC during combined treatment with peptide (MDRAB 12035 [1]; [9]): 0 µg/mL
Erythromycin MIC during combined treatment with peptide (MDRAB 12035 [1]; [10]): 0 µg/mL
Linezolid MIC during combined treatment with peptide (MDRAB 12035 [1]; [10]): 0 µg/mL
Vancomycin MIC during combined treatment with peptide (MDRAB 12035 [1]; [10]): 0 µg/mL
Erythromycin MIC during combined treatment with peptide (MDRAB 12035 [1]; [11]): 0 µg/mL
Linezolid MIC during combined treatment with peptide (MDRAB 12035 [1]; [11]): 0 µg/mL
Vancomycin MIC during combined treatment with peptide (MDRAB 12035 [1]; [11]): 0 µg/mL
Erythromycin MIC during combined treatment with peptide (MDRAB 12035 [1]; [12]): 0 µg/mL
Linezolid MIC during combined treatment with peptide (MDRAB 12035 [1]; [12]): 0 µg/mL
Vancomycin MIC during combined treatment with peptide (MDRAB 12035 [1]; [12]): 0 µg/mL
Minimal inhibitory concentration MIC (MDRST 8009): 32 µg/mL (≈ 13.4 µM)
Minimal inhibitory concentration MIC (MDRAB 12036): 16 µg/mL (≈ 6.71 µM)
Peptide MIC during treatment with erythromycin (MDRAB 12035 [2]; erythromycin 4 μg/ml (Conc./MIC 1/8)): 4 µg/mL
Peptide MIC during treatment with erythromycin (MDRAB 12035 [2]; erythromycin 8 μg/ml (Conc./MIC 1/4)): 2 µg/mL
Peptide MIC during treatment with erythromycin (MDRAB 12035 [2]; erythromycin 16 μg/ml (Conc./MIC 1/2)): 1 µg/mL
Peptide MIC during treatment with erythromycin (MDRAB 12035 [2]; erythromycin 32 μg/ml (Conc./MIC 1)): 0 µg/mL
Peptide MIC during treatment with linezolid (MDRAB 12035 [2]; [13]): 2 µg/mL
Peptide MIC during treatment with linezolid (MDRAB 12035 [2]; [14]): 0 µg/mL
Peptide MIC during treatment with linezolid (MDRAB 12035 [2]; linezolid […] (Conc./MIC 1/2)): 1 µg/mL
Peptide MIC during treatment with linezolid (MDRAB 12035 [2]; linezolid […] (Conc./MIC 1/4)): 1 µg/mL
Peptide MIC during treatment with vancomycin (MDRAB 12035 [2]; [15]): 2 µg/mL
Peptide MIC during treatment with vancomycin (MDRAB 12035 [2]; [16]): 1 µg/mL
Peptide MIC during treatment with vancomycin (MDRAB 12035 [2]; vancomycin […] (Conc./MIC 1/4)): 2 µg/mL
Peptide MIC during treatment with vancomycin (MDRAB 12035 [2]; vancomycin […] (Conc./MIC 1/8)): 2 µg/mL
Minimal inhibitory concentration MIC (P. aeruginosa): 64 µg/mL (≈ 26.8 µM)
Minimal inhibitory concentration MIC (MDRPA 2003): 64 µg/mL (≈ 26.8 µM)
Peptide MIC (E. coli; with Erythromycin […] (Conc./MIC 1)): 0 µg/mL
Peptide MIC (E. coli; with Linezolid […] (Conc./MIC 1)): 0 µg/mL
Peptide MIC (E. coli; with Vancomycin 1024 μg/ml (Conc./MIC 1)): 0 µg/mL
Peptide MIC during treatment with antibiotic (MDREC 1229 [3]; erythromycin 32 μg/ml (Conc./MIC 1/8)): 2 µg/mL
Peptide MIC during treatment with antibiotic (MDREC 1229 [3]; erythromycin 64 μg/ml (Conc./MIC 1/4)): 2 µg/mL
Peptide MIC during treatment with antibiotic (MDREC 1229 [3]; erythromycin […] (Conc./MIC 1)): 0 µg/mL
Peptide MIC during treatment with antibiotic (MDREC 1229 [3]; erythromycin […] (Conc./MIC 1/2)): 1 µg/mL
Peptide MIC during treatment with antibiotic (MDREC 1229 [3]; [13]): 4 µg/mL
Peptide MIC during treatment with antibiotic (MDREC 1229 [3]; [14]): 0 µg/mL
Peptide MIC during treatment with antibiotic (MDREC 1229 [3]; linezolid […] (Conc./MIC 1/2)): 1 µg/mL
Peptide MIC during treatment with antibiotic (MDREC 1229 [3]; linezolid […] (Conc./MIC 1/4)): 2 µg/mL
Peptide MIC during treatment with antibiotic (MDREC 1229 [3]; [15]): 2 µg/mL
Peptide MIC during treatment with antibiotic (MDREC 1229 [3]; [16]): 1 µg/mL
Peptide MIC during treatment with antibiotic (MDREC 1229 [3]; vancomycin […] (Conc./MIC 1/4)): 4 µg/mL
Peptide MIC during treatment with antibiotic (MDREC 1229 [3]; vancomycin […] (Conc./MIC 1/8)): 4 µg/mL
Minimal inhibitory concentration MIC (MDREC 1238): 16 µg/mL (≈ 6.71 µM)
Synergistic effect of antibacterial activity with existing antibiotics compared with PapMA-1 (A. baumannii; A. baumannii and MDRAB 12035): higher level than the PapMA-1 peptide
Antibiotic MIC, Erythromycin (A. baumannii; [17]): 16 µg/mL
Antibiotic MIC, Linezolid (A. baumannii; [17]): 128 µg/mL
Antibiotic MIC, Vancomycin (A. baumannii; [17]): >128 µg/mL
Antibiotic MIC, Erythromycin (A. baumannii; [18]): 8 µg/mL
Antibiotic MIC, Linezolid (A. baumannii; [18]): 32 µg/mL
Antibiotic MIC, Vancomycin (A. baumannii; [18]): 64 µg/mL
Antibiotic MIC, Erythromycin (A. baumannii; [19]): 1 µg/mL
Antibiotic MIC, Linezolid (A. baumannii; [19]): 4 µg/mL
Antibiotic MIC, Vancomycin (A. baumannii; [19]): 8 µg/mL
Antibiotic MIC, Erythromycin (A. baumannii; [20]): 0.25 µg/mL
Antibiotic MIC, Linezolid (A. baumannii; [20]): 1 µg/mL
Antibiotic MIC, Vancomycin (A. baumannii; [20]): 2 µg/mL
Antibiotic MIC, Erythromycin (A. baumannii; [21]): 0 µg/mL
Antibiotic MIC, Linezolid (A. baumannii; [21]): 0 µg/mL
Antibiotic MIC, Vancomycin (A. baumannii; [21]): 0 µg/mL
Antibiotic MIC, Erythromycin (A. baumannii; [22]): 0 µg/mL
Antibiotic MIC, Linezolid (A. baumannii; [22]): 0 µg/mL
Antibiotic MIC, Vancomycin (A. baumannii; [22]): 0 µg/mL
Antibiotic MIC, Erythromycin (A. baumannii; [23]): 0 µg/mL
Antibiotic MIC, Linezolid (A. baumannii; [23]): 0 µg/mL
Antibiotic MIC, Vancomycin (A. baumannii; [23]): 0 µg/mL
Antibiotic MIC, Erythromycin (A. baumannii; [24]): 0 µg/mL
Antibiotic MIC, Linezolid (A. baumannii; [24]): 0 µg/mL
Antibiotic MIC, Vancomycin (A. baumannii; [24]): 0 µg/mL
Antibiotic MIC, Erythromycin (MDREC 1229 [4]; [5]): 128 µg/mL
Antibiotic MIC, Linezolid (MDREC 1229 [4]; [5]): >128 µg/mL
Antibiotic MIC, Vancomycin (MDREC 1229 [4]; [5]): >128 µg/mL
Antibiotic MIC, Erythromycin (MDREC 1229 [4]; [6]): 32 µg/mL
Antibiotic MIC, Linezolid (MDREC 1229 [4]; [6]): 128 µg/mL
Antibiotic MIC, Vancomycin (MDREC 1229 [4]; [6]): >128 µg/mL
Antibiotic MIC, Erythromycin (MDREC 1229 [4]; [7]): 8 µg/mL
Antibiotic MIC, Linezolid (MDREC 1229 [4]; [7]): 32 µg/mL
Antibiotic MIC, Vancomycin (MDREC 1229 [4]; [7]): 128 µg/mL
Antibiotic MIC, Erythromycin (MDREC 1229 [4]; [8]): 4 µg/mL
Antibiotic MIC, Linezolid (MDREC 1229 [4]; [8]): 16 µg/mL
Antibiotic MIC, Vancomycin (MDREC 1229 [4]; [8]): 32 µg/mL
Antibiotic MIC, Erythromycin (MDREC 1229 [4]; [9]): 1 µg/mL
Antibiotic MIC, Linezolid (MDREC 1229 [4]; [9]): 16 µg/mL
Antibiotic MIC, Vancomycin (MDREC 1229 [4]; [9]): 8 µg/mL
Antibiotic MIC, Erythromycin (MDREC 1229 [4]; [10]): 0 µg/mL
Antibiotic MIC, Linezolid (MDREC 1229 [4]; [10]): 0 µg/mL
Antibiotic MIC, Vancomycin (MDREC 1229 [4]; [10]): 0 µg/mL
Antibiotic MIC, Erythromycin (MDREC 1229 [4]; [11]): 0 µg/mL
Antibiotic MIC, Linezolid (MDREC 1229 [4]; [11]): 0 µg/mL
Antibiotic MIC, Vancomycin (MDREC 1229 [4]; [11]): 0 µg/mL
Antibiotic MIC, Erythromycin (MDREC 1229 [4]; [12]): 0 µg/mL
Antibiotic MIC, Linezolid (MDREC 1229 [4]; [12]): 0 µg/mL
Antibiotic MIC, Vancomycin (MDREC 1229 [4]; [12]): 0 µg/mL
Minimal inhibitory concentration MIC (S. epidermidis): >128 µg/mL
